In patent US20250197382A1, “KIF18A INHIBITOR” (WIGEN BIOMEDICINE TECHNOLOGY (SHANGHAI) CO., LTD., priority 2022, published 2025):

Target: Recombinant human KIF18A (1-467His-tagged) protein (Homo sapiens (Human), UniProt Q8NI77)
Assay: KIF18A enzyme assay (microtubule-stimulated ATPase activity, ADP-Glo)
Assay type: biochemical
Settings: 30 nM KIF18A, ATP 75 μM, read-out: inhibitory activity against KIF18A IC50
In short: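 Baculovirus-expressed human KIF18A (1-467, His-tagged; 30 nM) preincubated 15 min at room temperature with compound (22-point 2-fold series) in pH 7.5 Tris buffer containing 30 μg/mL pig microtubules and 1 μM paclitaxel.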

Chain of Recombinant human KIF18A (1-467His-tagged) protein (Q8NI77 1-467): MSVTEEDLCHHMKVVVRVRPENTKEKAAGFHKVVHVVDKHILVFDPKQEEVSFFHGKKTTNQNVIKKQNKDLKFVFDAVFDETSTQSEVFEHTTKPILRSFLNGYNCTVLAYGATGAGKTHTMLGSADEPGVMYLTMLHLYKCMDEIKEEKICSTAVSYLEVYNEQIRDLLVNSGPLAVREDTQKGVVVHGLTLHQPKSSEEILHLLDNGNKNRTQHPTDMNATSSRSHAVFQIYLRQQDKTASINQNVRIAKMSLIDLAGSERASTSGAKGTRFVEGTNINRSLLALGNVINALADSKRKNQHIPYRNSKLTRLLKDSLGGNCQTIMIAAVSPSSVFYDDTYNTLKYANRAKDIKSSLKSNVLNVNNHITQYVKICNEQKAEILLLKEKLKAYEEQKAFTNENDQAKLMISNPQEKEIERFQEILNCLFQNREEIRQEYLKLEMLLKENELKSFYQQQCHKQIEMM
Chain of Recombinant human KIF18A (1-467His-tagged) protein (P02550 whole entry partner): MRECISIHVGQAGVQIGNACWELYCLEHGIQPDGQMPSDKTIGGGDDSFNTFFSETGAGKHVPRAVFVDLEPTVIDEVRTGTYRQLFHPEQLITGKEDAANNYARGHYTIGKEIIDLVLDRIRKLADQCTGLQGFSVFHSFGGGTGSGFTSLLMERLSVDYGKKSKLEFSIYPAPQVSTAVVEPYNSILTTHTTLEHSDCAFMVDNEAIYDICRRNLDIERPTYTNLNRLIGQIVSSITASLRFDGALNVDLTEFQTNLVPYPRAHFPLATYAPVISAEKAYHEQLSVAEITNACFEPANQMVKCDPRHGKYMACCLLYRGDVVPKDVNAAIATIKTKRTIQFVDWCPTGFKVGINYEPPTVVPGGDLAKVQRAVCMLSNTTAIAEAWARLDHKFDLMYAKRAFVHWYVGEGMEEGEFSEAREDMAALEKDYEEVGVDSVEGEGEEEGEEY
Chain of Recombinant human KIF18A (1-467His-tagged) protein (P02554 whole entry partner): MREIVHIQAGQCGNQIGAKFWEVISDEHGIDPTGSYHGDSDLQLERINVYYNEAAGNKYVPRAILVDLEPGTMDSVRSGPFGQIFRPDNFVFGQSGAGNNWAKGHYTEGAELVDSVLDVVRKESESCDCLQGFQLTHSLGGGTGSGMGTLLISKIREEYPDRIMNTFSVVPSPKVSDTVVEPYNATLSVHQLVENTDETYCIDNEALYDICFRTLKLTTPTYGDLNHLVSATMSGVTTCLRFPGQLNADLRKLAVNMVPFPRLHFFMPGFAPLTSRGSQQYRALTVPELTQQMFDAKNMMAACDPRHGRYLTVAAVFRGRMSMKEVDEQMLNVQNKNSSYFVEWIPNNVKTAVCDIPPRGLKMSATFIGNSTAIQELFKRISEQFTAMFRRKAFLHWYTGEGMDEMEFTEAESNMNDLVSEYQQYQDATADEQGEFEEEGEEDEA

IC50, ≤ 100 nM:
C[C@@H]1CN(c2cc(NC(=O)c3ccc(S(=O)(=O)N[C@@H](C)CO)cc3N3CCC4(CC3)CC4)cc3c2N(C)CC3)CCO1 [Compound 287]
C[C@H](CO)NS(=O)(=O)c1ccc(C(=O)Nc2cc3c(c(N4CCO[C@H](C)C4)c2)N(C)CC3)c(N2CCC3(CC2)CC3)c1 [Compound 288]
CN1CCc2cc(NC(=O)c3ccc(NS(=O)(=O)CCO)cc3N3CCC4(CC3)CC4)cc(N3CCC(F)(F)CC3)c21 [Compound 289]
C[C@@H]1CN(c2cc(C(=O)Nc3ccc(NS(=O)(=O)CCO)cc3N3CCC4(CC3)CC4)cc3c2N(C)CC3)CCO1 [Compound 290]
C[C@H]1CN(c2cc(C(=O)Nc3ccc(NS(=O)(=O)CCO)cc3N3CCC4(CC3)CC4)cc3c2N(C)CC3)CCO1 [Compound 291]
CN1CCc2cc(C(=O)Nc3ccc(NS(=O)(=O)CCO)cc3N3CCC4(CC3)CC4)cc(N3CC(F)(F)C3)c21 [Compound 292]
CN1CCc2cc(C(=O)Nc3ccc(NS(=O)(=O)CCO)cc3N3CCC4(CC3)CC4)cc(OCCC(F)(F)F)c21 [Compound 293]
CN1CCc2cc(C(=O)Nc3ccc(NS(=O)(=O)CCO)cc3N3CCC4(CC3)CC4)cc(N3CCC4(CC4)C3)c21 [Compound 294]
CN1CCc2cc(C(=O)Nc3ccc(NS(=O)(=O)CCO)cc3N3CCC4(CC3)CC4)cc(OC3CCC3)c21 [Compound 295]
CN1CCc2cc(C(=O)Nc3ccc(NS(=O)(=O)CCO)cc3N3CCC4(CC3)CC4)cc(N3CCC(F)CC3)c21 [Compound 297]
CN1CCc2cc(C(=O)Nc3ccc(NS(=O)(=O)CCO)cc3N3CCC4(CC3)CC4)cc(N3CC4CC4C3)c21 (stereo not shown) [Compound 298]
CN1CCc2cc(C(=O)Nc3ccc(NS(=O)(=O)CCO)cc3N3CCC4(CC3)CC4)cc(NC(C)(C)CO)c21 [Compound 299]
CN1CCc2cc(C(=O)Nc3ccc(NS(=O)(=O)CCO)cc3N3CCC4(CC3)CC4)cc(N3CCOCC3)c21 [Compound 300]
C[C@@H](CO)S(=O)(=O)Nc1ccc(NC(=O)c2cc3c(c(N4CCC(F)(F)CC4)c2)N(C)CC3)c(N2CCC3(CC2)CC3)c1 [Compound 301]
C[C@H](CO)S(=O)(=O)Nc1ccc(NC(=O)c2cc3c(c(N4CCC(F)(F)CC4)c2)N(C)CC3)c(N2CCC3(CC2)CC3)c1 [Compound 302]
C[C@@H]1CN(c2cc(C(=O)Nc3ccc(NS(=O)(=O)[C@@H](C)CO)cc3N3CCC4(CC3)CC4)cc3c2N(C)CC3)CCO1 [Compound 303]
C[C@@H]1CN(c2cc(C(=O)Nc3ccc(NS(=O)(=O)[C@H](C)CO)cc3N3CCC4(CC3)CC4)cc3c2N(C)CC3)CCO1 [Compound 304]
CN1CCc2cc(C(=O)Nc3ccc(S(=O)(=O)NCCO)cc3N3CCC4(CC3)CC4)cc(N3CCC(F)(F)CC3)c21 [Compound 305]
C[C@@H]1CN(c2cc(C(=O)Nc3ccc(S(=O)(=O)NCCO)cc3N3CCC4(CC3)CC4)cc3c2N(C)CC3)CCO1 [Compound 306]
CN1CCc2cc(C(=O)Nc3ccc(S(=O)(=O)NCCO)cc3N3CCC4(CC3)CC4)cc(N3CC(F)(F)C3)c21 [Compound 308]
CN1CCc2cc(C(=O)Nc3ccc(S(=O)(=O)NCCO)cc3N3CCC4(CC3)CC4)cc(OCCC(F)(F)F)c21 [Compound 309]
CN1CCc2cc(C(=O)Nc3ccc(S(=O)(=O)NCCO)cc3N3CCC4(CC3)CC4)cc(N3CCC4(CC4)C3)c21 [Compound 310]
CN1CCc2cc(C(=O)Nc3ccc(S(=O)(=O)NCCO)cc3N3CCC4(CC3)CC4)cc(N3CCC(C)(F)C3)c21 (stereo not shown) [Compound 312]
CN1CCc2cc(C(=O)Nc3ccc(S(=O)(=O)NCCO)cc3N3CCC4(CC3)CC4)cc(N3CCC(F)CC3)c21 [Compound 313]
CN1CCc2cc(C(=O)Nc3ccc(S(=O)(=O)NCCO)cc3N3CCC4(CC3)CC4)cc(N3CC4CC4C3)c21 (stereo not shown) [Compound 314]
CN1CCc2cc(C(=O)Nc3ccc(S(=O)(=O)NCCO)cc3N3CCC4(CC3)CC4)cc(NC(C)(C)CO)c21 [Compound 315]
CN1CCc2cc(C(=O)Nc3ccc(S(=O)(=O)NCCO)cc3N3CCC4(CC3)CC4)cc(N3CCOCC3)c21 [Compound 316]
C[C@@H](CO)NS(=O)(=O)c1ccc(NC(=O)c2cc3c(c(N4CCC(F)(F)CC4)c2)N(C)CC3)c(N2CCC3(CC2)CC3)c1 [Compound 317]
C[C@H](CO)NS(=O)(=O)c1ccc(NC(=O)c2cc3c(c(N4CCC(F)(F)CC4)c2)N(C)CC3)c(N2CCC3(CC2)CC3)c1 [Compound 318]
C[C@@H]1CN(c2cc(C(=O)Nc3ccc(S(=O)(=O)N[C@@H](C)CO)cc3N3CCC4(CC3)CC4)cc3c2N(C)CC3)CCO1 [Compound 319]
C[C@H](CO)NS(=O)(=O)c1ccc(NC(=O)c2cc3c(c(N4CCO[C@H](C)C4)c2)N(C)CC3)c(N2CCC3(CC2)CC3)c1 [Compound 320]
CN1CCc2cc(NC(=O)c3ccc(NS(=O)(=O)CCO)cc3N3CCC4(CC3)CC4)nc(N3CCC(F)(F)CC3)c21 [Compound 321]
C[C@@H]1CN(c2nc(NC(=O)c3ccc(NS(=O)(=O)CCO)cc3N3CCC4(CC3)CC4)cc3c2N(C)CC3)CCO1 [Compound 322]
C[C@H]1CN(c2nc(NC(=O)c3ccc(NS(=O)(=O)CCO)cc3N3CCC4(CC3)CC4)cc3c2N(C)CC3)CCO1 [Compound 323]
CN1CCc2cc(NC(=O)c3ccc(NS(=O)(=O)CCO)cc3N3CCC4(CC3)CC4)nc(N3CC(F)(F)C3)c21 [Compound 324]
CN1CCc2cc(NC(=O)c3ccc(NS(=O)(=O)CCO)cc3N3CCC4(CC3)CC4)nc(OCCC(F)(F)F)c21 [Compound 325]
CN1CCc2cc(NC(=O)c3ccc(NS(=O)(=O)CCO)cc3N3CCC4(CC3)CC4)nc(N3CCC4(CC4)C3)c21 [Compound 326]
CN1CCc2cc(NC(=O)c3ccc(NS(=O)(=O)CCO)cc3N3CCC4(CC3)CC4)nc(OC3CCC3)c21 [Compound 327]
CN1CCc2cc(NC(=O)c3ccc(NS(=O)(=O)CCO)cc3N3CCC4(CC3)CC4)nc(N3CCC(C)(F)C3)c21 (stereo not shown) [Compound 328]
CN1CCc2cc(NC(=O)c3ccc(NS(=O)(=O)CCO)cc3N3CCC4(CC3)CC4)nc(N3CCC(F)CC3)c21 [Compound 329]
CN1CCc2cc(NC(=O)c3ccc(NS(=O)(=O)CCO)cc3N3CCC4(CC3)CC4)nc(N3CC4CC4C3)c21 (stereo not shown) [Compound 330]
CN1CCc2cc(NC(=O)c3ccc(NS(=O)(=O)CCO)cc3N3CCC4(CC3)CC4)nc(NC(C)(C)CO)c21 [Compound 331]
CN1CCc2cc(NC(=O)c3ccc(S(=O)(=O)NCCO)cc3N3CCC4(CC3)CC4)nc(N3CCOCC3)c21 [Compound 332]
C[C@@H](CO)S(=O)(=O)Nc1ccc(C(=O)Nc2cc3c(c(N4CCC(F)(F)CC4)n2)N(C)CC3)c(C2CCC3(CC2)CC3)c1 [Compound 333]
C[C@H](CO)S(=O)(=O)Nc1ccc(C(=O)Nc2cc3c(c(N4CCC(F)(F)CC4)n2)N(C)CC3)c(N2CCC3(CC2)CC3)c1 [Compound 334]
C[C@@H]1CN(c2nc(NC(=O)c3ccc(NS(=O)(=O)[C@@H](C)CO)cc3N3CCC4(CC3)CC4)cc3c2N(C)CC3)CCO1 [Compound 335]
C[C@@H]1CN(c2nc(NC(=O)c3ccc(NS(=O)(=O)[C@H](C)CO)cc3N3CCC4(CC3)CC4)cc3c2N(C)CC3)CCO1 [Compound 336]
CN1CCc2cc(NC(=O)c3ccc(S(=O)(=O)NCCO)cc3N3CCC4(CC3)CC4)nc(N3CCC(F)(F)CC3)c21 [Compound 337]
C[C@@H]1CN(c2nc(NC(=O)c3ccc(S(=O)(=O)NCCO)cc3N3CCC4(CC3)CC4)cc3c2N(C)CC3)CCO1 [Compound 338]
C[C@H]1CN(c2nc(NC(=O)c3ccc(S(=O)(=O)NCCO)cc3N3CCC4(CC3)CC4)cc3c2N(C)CC3)CCO1 [Compound 339]
CN1CCc2cc(NC(=O)c3ccc(S(=O)(=O)NCCO)cc3N3CCC4(CC3)CC4)nc(N3CC(F)(F)C3)c21 [Compound 340]
CN1CCc2cc(NC(=O)c3ccc(S(=O)(=O)NCCO)cc3N3CCC4(CC3)CC4)nc(N3CCC4(CC4)C3)c21 [Compound 342]
CN1CCc2cc(NC(=O)c3ccc(S(=O)(=O)NCCO)cc3N3CCC4(CC3)CC4)nc(OC3CCC3)c21 [Compound 343]
CN1CCc2cc(NC(=O)c3ccc(S(=O)(=O)NCCO)cc3N3CCC4(CC3)CC4)nc(N3CCC(C)(F)C3)c21 (stereo not shown) [Compound 344]
CN1CCc2cc(NC(=O)c3ccc(S(=O)(=O)NCCO)cc3N3CCC4(CC3)CC4)nc(N3CC4CC4C3)c21 (stereo not shown) [Compound 346]
CN1CCc2cc(NC(=O)c3ccc(S(=O)(=O)NCCO)cc3N3CCC4(CC3)CC4)nc(NC(C)(C)CO)c21 [Compound 347]
C[C@@H](CO)NS(=O)(=O)c1ccc(C(=O)Nc2cc3c(c(N4CCC(F)(F)CC4)n2)N(C)CC3)c(N2CCC3(CC2)CC3)c1 [Compound 349]
C[C@H](CO)NS(=O)(=O)c1ccc(C(=O)Nc2cc3c(c(N4CCC(F)(F)CC4)n2)N(C)CC3)c(N2CCC3(CC2)CC3)c1 [Compound 350]
C[C@@H]1CN(c2nc(NC(=O)c3ccc(S(=O)(=O)N[C@@H](C)CO)cc3N3CCC4(CC3)CC4)cc3c2N(C)CC3)CCO1 [Compound 351]
C[C@H](CO)NS(=O)(=O)c1ccc(C(=O)Nc2cc3c(c(N4CCO[C@H](C)C4)n2)N(C)CC3)c(N2CCC3(CC2)CC3)c1 [Compound 352]
C[C@@H]1CN(c2nc(C(=O)Nc3ccc(NS(=O)(=O)CCO)cc3N3CCC4(CC3)CC4)cc3c2N(C)CC3)CCO1 [Compound 354]
